This note sets out measurements from ChEMBL document CHEMBL5532637, “Antimicrobial activity of natural and semi-synthetic carbazole alkaloids” (Eur J Med Chem, 2023).

One data set concerns Saccharomyces cerevisiae. In words: Antifungal activity against Saccharomyces cerevisiae ATCC 9763 assessed as inhibition of fungal growth incubated for 24 hrs by microtiter plate reader assay. The format is functional.
A further data set deals with Pichia kudriavzevii. Kind of data set: Antifungal activity against Candida krusei ATCC 6258 assessed as inhibition of fungal growth incubated for 24 hrs by microtiter plate reader assay. The format is functional.
Data set [1] deals with Staphylococcus aureus. In words: Antimicrobial activity against Staphylococcus aureus assessed as inhibition of microbial growth incubated for 18 hrs by agar diffusion method. The format is functional.
Data set [2] has as its system Staphylococcus aureus. Kind of data set: Antimicrobial activity against methicillin-resistant Staphylococcus aureus assessed as inhibition of microbial growth incubated for 18 hrs by agar diffusion method. The format is functional. A general note: Agar diffusion results depend on both activity and mobility in agar.
Data set [3] relates to Staphylococcus aureus. In words: Antibacterial activity against Staphylococcus aureus assessed as zone of inhibition by filter paper disk-agar diffusion method. The format is functional.
The test system of the next data set is Nakaseomyces glabratus. Kind of data set: Antifungal activity against Candida glabrata ATCC 90030 assessed as inhibition of fungal growth incubated for 24 hrs by microtiter plate reader assay. The format is functional.
Data set [4] concerns Cryptococcus neoformans. In words: Antifungal activity against Cryptococcus neoformans […] assessed as inhibition of fungal growth incubated for 24 to 48 hrs by CLSI protocol based broth microdilution method. The format is functional. The note with it: time 24-48 hrs.
Data set [5] has as its system Cryptococcus deuterogattii. In words: Antifungal activity against Cryptococcus gattii VGII WM178/08 assessed as inhibition of fungal growth incubated for 24 to 48 hrs by CLSI protocol based broth microdilution method. The format is functional, Cryptococcus bacillisporus. The note with it: time 24-48 hrs. (In general: Dilution methods test growth across graded concentrations, often in twofold steps.)

Another data set relates to Bacillus cereus. Kind of data set: Antibacterial activity against Bacillus cereus assessed as inhibition of bacterial growth. The format is functional, organism-based.
Data set [6] concerns Bacillus subtilis. Kind of data set: Antibacterial activity against Bacillus subtilis assessed as inhibition of bacterial growth by agar well diffusion method. The format is functional.
The subject of a further data set is Pasteurella multocida. In words: Antibacterial activity against Pasteurella multocida assessed as inhibition of bacterial growth by agar well diffusion method. The format is functional.
The subject of another data set is Nannizzia gypsea. Kind of data set: Antifungal activity against Microsporum gypseum assessed as inhibition of fungal growth by serial dilution method. The format is functional.
The test system of data set [7] is Cryptococcus neoformans. Kind of data set: Antifungal activity against Cryptococcus neoformans assessed as inhibition of fungal growth by serial dilution method. The format is functional.
Another data set concerns Aspergillus fumigatus. In words: Antifungal activity against Aspergillus fumigatus assessed as inhibition of fungal growth by serial dilution method. The format is functional.
For data set [8], the system named is Bacillus subtilis. In words: Antibacterial activity against Bacillus subtilis NRS-744 assessed as inhibition of bacterial growth incubated for 18 to 24 hrs by microbroth dilution method. The format is functional. The note with it: time 18-24 hrs.
For data set [9], the system named is Staphylococcus aureus. In words: Antibacterial activity against Staphylococcus aureus NRRL B-767 assessed as inhibition of bacterial growth incubated for 18 to 24 hrs by microbroth dilution method. The note with it: time 18-24 hrs. The format is functional.
A further data set relates to Candida albicans. In words: Antifungal activity against Candida albicans SC5314 assessed as inhibition of fungal growth incubated for 24 hrs by microtiter plate reader assay. The format is functional.
Data set [10] has as its system Mycobacterium tuberculosis. Kind of data set: Antibacterial activity against Mycobacterium tuberculosis H37Rv assessed as inhibition of bacterial growth by two-fold serial dilution method. The format is functional.
Data set [11] is described as follows: Cytotoxicity against green monkey Vero cells. The note with it: green monkey (Chlorocebus sabaeus). The format is toxicity, cell-based.
In data set [12] the test system is Staphylococcus aureus. In words: Antibacterial activity against Staphylococcus aureus assessed as zone of inhibition incubated for 24 hrs by disk diffusion method. The format is functional.
A further data set deals with Pseudomonas aeruginosa. Kind of data set: Antibacterial activity against Pseudomonas aeruginosa assessed as zone of inhibition incubated for 24 hrs by disk diffusion method. The format is functional.
Data set [13] deals with Bacillus subtilis. In words: Antibacterial activity against Bacillus subtilis 168 assessed as inhibition of bacterial growth by microdilution assay. The format is functional.
In another data set the test system is Staphylococcus simulans. In words: Antibacterial activity against Staphylococcus simulans 22 assessed as inhibition of bacterial growth by microdilution assay. The format is functional.
The subject of data set [14] is Staphylococcus aureus. In words: Antibacterial activity against Staphylococcus aureus ATCC 29213 assessed as inhibition of bacterial growth by microdilution assay. The format is functional.
The test system of the next data set is Moraxella catarrhalis. In words: Antibacterial activity against Moraxella catarrhalis ATCC 43617 assessed as inhibition of bacterial growth by microdilution assay. The format is functional.
The test system of the next data set is Enterococcus faecium. In words: Antibacterial activity against Enterococcus faecium BM 4147 assessed as inhibition of bacterial growth by microdilution assay. The format is functional.

≈ marks a conversion by molar mass, not a printed value.

For the compound `FC(F)(F)Oc1ccc2c3c([nH]c2c1)C(NCc1ccc(Br)cc1)CCC3` (stereo unspecified), the MIC50 with Saccharomyces cerevisiae stood at 1.5 µM (≈ 0.659 µg/mL); in the data set on Pichia kudriavzevii, 4.7 µM (≈ 2.06 µg/mL).

As to `CC(C)=CC1OC(=O)c2cc(O)c3[nH]c4ccccc4c3c21` (stereo unspecified), the MIC in the data set on Staphylococcus aureus [1] and in the data set on Staphylococcus aureus [2] was 64 mg/L each time.

Take `COc1cc2c(cc1O)[nH]c1cc(O)c(C=O)cc12` [CLAULANSINE J]: the “inhibition zone (IZ)” value in the data set on Staphylococcus aureus [3] amounted to 14.2 mm.

With `FC(F)(F)Oc1ccc2c3c([nH]c2c1)C(NCCOc1ccc(Cl)cc1)CCC3` (stereo unspecified), the MIC50 with Nakaseomyces glabratus was determined as 5.3 µM (≈ 2.25 µg/mL).

Regarding `c1ccc2c(c1)[nH]c1ccccc12` [CARBAZOLE], the MIC (with Cryptococcus neoformans [4]; in [5]) was 160 mg/L (≈ 957 µM) each time.

With `Cc1cc2c([nH]c3ccccc32)c2c1OC(C)(C)C=C2` [GRINIMIBINE], the IC50 in the data set with Bacillus cereus turned out to be 3.4 µM.

For the compound `C/C(=N/Nc1ccccc1)C1CCCc2c1n(C)c1c([N+](=O)[O-])cc([N+](=O)[O-])cc21` (stereo unspecified), the minimal inhibitory concentration (MIC) with Bacillus subtilis [6] and in the data set with Pasteurella multocida was 1.8 mg/L (≈ 4.42 µM) throughout.

`Cc1ccc2c(c1)c1c(n2CCCNCc2ccccc2)CCCC1`: the MIC80 with Nannizzia gypsea stood at 0.016 mg/L (≈ 0.0481 µM); in the data set on Cryptococcus neoformans [7], 1 mg/L (≈ 3.01 µM); in the data set with Aspergillus fumigatus, 32 mg/L (≈ 96.2 µM).

For the compound `CCn1c2ccccc2c2cc(NC(=O)COc3cccc4cccnc34)ccc21`, the MIC in the data set on Bacillus subtilis [8] and in the data set on Staphylococcus aureus [9] was 31.2 mg/L (≈ 79 µM) in each case.

Regarding `Clc1ccc2[nH]c3c(c2c1)CCCC3NCc1ccc(-c2ccccc2)cc1` (stereo unspecified), in the data set with Candida albicans, the MIC50 was found to be 6.8 µM (≈ 2.63 µg/mL).

In the case of `COc1ccc2[nH]c3c(OCc4ccccc4)cc(C)cc3c2c1`, the MIC90 in data set [10] was determined as 31.7 mg/L (≈ 99.9 µM). Further, in [11], the IC50 is above 128 µM.

Turning to `CCOc1nc2c(c(-c3cccs3)c1C(N)=O)CCc1c-2[nH]c2ccc(Cl)cc12`, the “inhibition zone (IZ)” value in the data set with Staphylococcus aureus [12] is given as 1.1 cm; in the data set with Pseudomonas aeruginosa, 2.1 cm.

In the case of `c1ccc(CCNC2CCCc3c2[nH]c2ccc(C4CCCCC4)cc32)cc1` (stereo unspecified), the minimum inhibitory concentration (MIC) in the data set on Bacillus subtilis [13] worked out at 2 mg/L (≈ 5.37 µM); in the data set on Staphylococcus simulans, 2 mg/L (≈ 5.37 µM); with Staphylococcus aureus [14], 2 mg/L (≈ 5.37 µM); in the data set on Moraxella catarrhalis, 1 mg/L (≈ 2.68 µM); in the data set with Enterococcus faecium it was 2 mg/L (≈ 5.37 µM).

As usually defined, the MIC50 is the lowest concentration that inhibits either 50% of growth or 50% of the strains tested, depending on the study. Broadly, the MIC is the smallest concentration in the dilution series that meets the test's criterion for growth inhibition. As usually defined, the IC50 is the concentration that inhibits the measured activity by half. In general, MIC80 refers to the lowest concentration that inhibits either 80% of growth or 80% of the strains tested, depending on the study. Broadly, the MIC90 is an inhibitory concentration at the 90% level, which refers to growth in some studies and to a panel of isolates in others.
